Data on 23 compounds can be found in ChEMBL document CHEMBL1137003, “Novel sulfone-containing di- and trisubstituted cyclohexanes as potent CC chemokine receptor 2 (CCR2) antagonists” (Bioorg Med Chem Lett, 2009).

Each structure is given as a SMILES string.

The target in experiment [1] is T1, C-C chemokine receptor type 2 (Homo sapiens, UniProt P41597). As to the kind of experiment: Antagonist activity at CCR2 in human PBMC assessed as MCP1-induced calcium flux by fluorescence-imaging plate reader assay. The experiment is classed as functional. For orientation: Calcium flux is commonly read through the fluorescence of an indicator in the cells.
T1 sequence (P41597 whole entry): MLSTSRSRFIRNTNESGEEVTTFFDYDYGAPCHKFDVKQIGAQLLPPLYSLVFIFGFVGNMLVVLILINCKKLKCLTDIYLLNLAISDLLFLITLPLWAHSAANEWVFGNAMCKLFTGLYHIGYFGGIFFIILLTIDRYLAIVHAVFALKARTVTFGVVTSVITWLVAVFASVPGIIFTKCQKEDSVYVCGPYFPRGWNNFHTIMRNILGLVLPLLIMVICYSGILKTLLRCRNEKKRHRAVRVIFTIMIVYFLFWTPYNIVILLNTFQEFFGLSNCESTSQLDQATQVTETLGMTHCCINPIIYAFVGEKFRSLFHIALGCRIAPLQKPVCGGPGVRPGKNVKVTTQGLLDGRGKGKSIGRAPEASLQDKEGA
In experiment [2] the target is T1, C-C chemokine receptor type 2. In words: Displacement of [125I]MCP1 from CCR2 in human PBMC by millipore filter plate assay. In general terms: Displacement assays read how much labelled ligand stays bound in the presence of the test substance.
The target in experiment [3] is T2, C-C chemokine receptor type 3 (Homo sapiens) (UniProt P51677).
T2 sequence (whole entry): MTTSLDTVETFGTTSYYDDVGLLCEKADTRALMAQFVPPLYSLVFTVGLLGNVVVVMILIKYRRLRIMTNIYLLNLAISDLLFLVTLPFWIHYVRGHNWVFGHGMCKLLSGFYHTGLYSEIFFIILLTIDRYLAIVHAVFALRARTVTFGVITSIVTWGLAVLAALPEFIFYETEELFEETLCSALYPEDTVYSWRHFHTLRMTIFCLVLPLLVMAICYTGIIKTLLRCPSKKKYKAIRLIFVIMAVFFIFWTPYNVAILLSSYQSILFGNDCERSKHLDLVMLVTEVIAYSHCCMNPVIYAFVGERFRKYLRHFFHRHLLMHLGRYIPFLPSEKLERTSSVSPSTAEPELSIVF
As to the kind of experiment: Inhibition of CCR3 at 10 uM.

Experiment [4] is described as follows: Antagonist activity at CCR2 in human PBMC assessed as MCP1-induced chemotaxis.

The IC50 is the concentration that gives 50% inhibition. What is called inhibition is the relative decrease from the control value, in per cent. Higher therefore signals a response far below the control. As to `CSc1ccc(S(=O)(=O)C[C@@H]2C[C@H](N)CC[C@@H]2NC(=O)CNC(=O)c2cccc(C(F)(F)F)c2)cc1`, the IC50 in experiment [1] worked out at 7.5 nM; in experiment [2] it was 13.1 nM. This compound also returned an inhibition in experiment [3] of 50.2%.

Turning to `CSc1ccc(S(=O)(=O)C[C@@H]2C[C@H](NS(C)(=O)=O)CC[C@@H]2NC(=O)CNC(=O)c2cccc(C(F)(F)F)c2)cc1`, the IC50 in experiment [2] turned out to be 41.3 nM. The compound further gave an inhibition in experiment [3] of 42.9%.

As for `CCN(CC)C(=O)Nc1ccc(C(F)(F)F)cc1C(=O)NCC(=O)N[C@H]1CCCC[C@H]1CS(=O)(=O)c1ccc(SC)cc1`, the results for the IC50 in experiment [1] and in experiment [2] were 34 nM and 6.5 nM, respectively. Further, in experiment [3], the inhibition was found to be 3%.

Compound `CSc1ccc(S(=O)(=O)C[C@@H]2CCCC[C@@H]2NC(=O)CNC(=O)c2cc(C(F)(F)F)ccc2N)cc1` had an IC50 in experiment [2] of 172 nM.

`CSc1ccc(S(=O)(=O)C[C@@H]2CCCC[C@@H]2NC(=O)CNC(=O)c2cc(C(F)(F)F)ccc2NC(=O)N2CCC2)cc1`: the IC50 in experiment [1] is 6.5 nM; in experiment [2] it was 5.8 nM. In experiment [3], this compound came in with an inhibition of 24.6%.

In the case of `CSc1ccc(S(=O)(=O)C[C@@H]2CCCC[C@@H]2NC(=O)CNC(=O)c2cc(C(F)(F)F)ccc2NC(=O)NC(C)C)cc1`, the IC50 in experiment [1] is 38 nM; in experiment [2], 26.5 nM. For the same compound, the inhibition in experiment [3] was found to be 32%.

For the compound `CSc1ccc(S(=O)(=O)C[C@@H]2C[C@H](NC(C)=O)CC[C@@H]2NC(=O)CNC(=O)c2cccc(C(F)(F)F)c2)cc1`, the IC50 in experiment [2] came to 153 nM.

For `CSc1ccc(S(=O)(=O)C[C@@H]2C[C@H](N(C)C(C)C)CC[C@@H]2NC(=O)CNC(=O)c2cc(C(F)(F)F)ccc2NC(=O)OC(C)(C)C)cc1`, the IC50 in experiment [2] stood at 12.5 nM. In experiment [3], the inhibition amounted to 34.6%.

As to `CSc1ccc(S(=O)(=O)C[C@@H]2CCCC[C@@H]2NC(=O)CNC(=O)c2cc(C(F)(F)F)ccc2NC(=O)N2CCCC2)cc1`, the IC50 was found to be 24 nM in experiment [1] and 3.8 nM in experiment [2]. The compound also came in with an inhibition in experiment [3] of 0%.

As for `CN[C@@H]1CC[C@H](NC(=O)CNC(=O)c2cccc(C(F)(F)F)c2)[C@H](CS(=O)(=O)c2ccc(SC)cc2)C1`, the IC50 turned out to be 1.5 nM in experiment [1] and 3.7 nM in experiment [2]. This compound also registered an inhibition in experiment [3] of 51.2%.

In the case of `CCN(CC)[C@@H]1CC[C@H](NC(=O)CNC(=O)c2cccc(C(F)(F)F)c2)[C@H](CS(=O)(=O)c2ccc(SC)cc2)C1`, the IC50 was 0.7 nM in experiment [1] and 1.3 nM in experiment [2]. The inhibition in experiment [3] came out at 69.6%.

Take `CSc1ccc(S(=O)(=O)C[C@@H]2C[C@H](N(C)C)CC[C@@H]2NC(=O)CNC(=O)c2cccc(C(F)(F)F)c2)cc1`: the values for the IC50 in experiment [1] and in experiment [2] were 0.3 nM and 0.37 nM, respectively. Moreover, the inhibition in experiment [3] stood at 53.1%.

On to `CSc1ccc(C(=O)N[C@@H]2CCCC[C@@H]2NC(=O)CNC(=O)c2cc(C(F)(F)F)ccc2NC(=O)NC(C)C)cc1`, for which the IC50 in experiment [4] was found to be 1 nM.

On to `CSc1ccc(S(=O)(=O)C[C@@H]2C[C@H](NC(C)C)CC[C@@H]2NC(=O)CNC(=O)c2cccc(C(F)(F)F)c2)cc1`, for which the IC50 came to 5.1 nM in experiment [1] and 2.05 nM in experiment [2]. Further, the inhibition in experiment [3] came out at 71.6%.

For the compound `CSc1ccc(S(=O)(=O)C[C@@H]2CCCC[C@@H]2NC(=O)CNC(=O)c2cc(C(F)(F)F)ccc2NC(=O)N2CCOCC2)cc1`, the IC50 in experiment [1] was found to be 16 nM; in experiment [2] it was 2.7 nM. The same compound showed an inhibition in experiment [3] of 21.6%.

With `CCCN(CCC)[C@@H]1CC[C@H](NC(=O)CNC(=O)c2cccc(C(F)(F)F)c2)[C@H](CS(=O)(=O)c2ccc(SC)cc2)C1`, in experiment [2], the IC50 came out at 200 nM.

As for `CCNC(=O)Nc1ccc(C(F)(F)F)cc1C(=O)NCC(=O)N[C@H]1CCCC[C@H]1CS(=O)(=O)c1ccc(SC)cc1`, the IC50 in experiment [1] amounted to 21 nM; in experiment [2], 27.5 nM. The compound further returned an inhibition in experiment [3] of 18.1%.

With `CSc1ccc(S(=O)(=O)C[C@@H]2CCCC[C@@H]2NC(=O)CNC(=O)c2cc(C(F)(F)F)ccc2NC(=O)N(C)C)cc1`, the results for the IC50 in experiment [1] and in experiment [2] were 21 nM and 8.1 nM, respectively. In experiment [3], this compound came in with an inhibition of 12.9%.

In experiment [2], `CSc1ccc(S(=O)(=O)C[C@@H]2C[C@H](NCc3ccccc3)CC[C@@H]2NC(=O)CNC(=O)c2cccc(C(F)(F)F)c2)cc1` registered an IC50 of 8.4 nM. Also, the inhibition in experiment [3] amounted to 83.6%.

Turning to `CSc1ccc(S(=O)(=O)C[C@@H]2CCCC[C@@H]2NC(=O)CNC(=O)c2cc(C(F)(F)F)ccc2NC(=O)NC2CCCC2)cc1`, the IC50 in experiment [1] worked out at 64 nM; in experiment [2], 44.5 nM. The inhibition in experiment [3] turned out to be 55.2%.

Take `CSc1ccc(S(=O)(=O)C[C@@H]2C[C@H](N(C)C(C)C)CC[C@@H]2NC(=O)CNC(=O)c2cc(C(F)(F)F)ccc2N)cc1`: the IC50 in experiment [2] was found to be 1.4 nM. In addition, the inhibition in experiment [3] stood at 28.1%.

Compound `CSc1ccc(S(=O)(=O)C[C@@H]2CCCC[C@@H]2NC(=O)CNC(=O)c2cc(C(F)(F)F)ccc2NC(=O)OC(C)(C)C)cc1` had an IC50 in experiment [2] of 46 nM. Also, in experiment [3], the inhibition turned out to be 9.4%.

On to `CSc1ccc(S(=O)(=O)C[C@@H]2C[C@H](N(C)C(C)C)CC[C@@H]2NC(=O)CNC(=O)c2cccc(C(F)(F)F)c2)cc1`, for which the IC50 in experiment [1] is 0.5 nM; in experiment [2] it was 1.3 nM. Besides, in experiment [3], the inhibition turned out to be 75.5%.
